Data taken from ChEMBL document CHEMBL3885881, “DrugMatrix”.

Species: Rattus norvegicus
Test: DrugMatrix - Regimen: Daily Repeat
Format: toxicity, organism-based, Sprague-Dawley
Design: regimen Daily Repeat, gender Male, age 6-8 weeks
Conditions: in vivo, po, 25 mg/kg, route oral GAVAGE, dose level Low, vehicle .5 % CMC; for ABSOLUTE BASOPHIL / ABSOLUTE EOSINOPHIL / ABSOLUTE LYMPHOCYTE / ABSOLUTE MONOCYTE / ABSOLUTE SEGMENTED NEUTROPHIL / BASOPHIL / EOSINOPHIL / ERYTHROCYTE COUNT / HEMATOCRIT / HEMOGLOBIN / LEUKOCYTE COUNT / LYMPHOCYTE / MEAN CORPUSCULAR HEMOGLOBIN / MEAN CORPUSCULAR HEMOGLOBIN CONCENTRATION / MEAN CORPUSCULAR VOLUME / MONOCYTE / NEUTROPHIL / NUCLEATED RED BLOOD CELLS / PLATELET COUNT: tissue Blood; for ALANINE AMINOTRANSFERASE / ALBUMIN / ALKALINE PHOSPHATASE / ASPARTATE AMINOTRANSFERASE / BLOOD UREA NITROGEN / CARBON DIOXIDE / CHLORIDE / CHOLESTEROL / CREATINE PHOSPHOKINASE / CREATININE / GLUCOSE / LACTATE DEHYDROGENASE / LIPASE / PHOSPHORUS / POTASSIUM / SODIUM / TOTAL BILIRUBIN / TOTAL PROTEIN / URIC ACID: tissue Plasma

`CC(=O)S[C@@H]1CC2=CC(=O)CC[C@]2(C)[C@H]2CC[C@@]3(C)[C@@H](CC[C@@]34CCC(=O)O4)[C@H]12` [SPIRONOLACTONE] was tested, and the “ABSOLUTE BASOPHIL” value (72 h, time 3 day) was 0 CELLS/uL, the “ABSOLUTE EOSINOPHIL” value (72 h, time 3 day) was 0 CELLS/uL and the “ABSOLUTE LYMPHOCYTE” value (72 h, time 3 day) was 11038 CELLS/uL. The “ABSOLUTE MONOCYTE” value (72 h, time 3 day) was 168 CELLS/uL, the “ABSOLUTE SEGMENTED NEUTROPHIL” value (72 h, time 3 day) was 694 CELLS/uL and the BASOPHIL (72 h, time 3 day) was 0%. For the same compound, the EOSINOPHIL (72 h, time 3 day) was 0%, the “ERYTHROCYTE COUNT” value (72 h, time 3 day) was 5.44 x10E6/uL and the HEMATOCRIT (72 h, time 3 day) was 34.63%. The HEMOGLOBIN (72 h, time 3 day) was 13.87 G/DL, the “LEUKOCYTE COUNT” value (72 h, time 3 day) was 11.9 x10E3/uL and the LYMPHOCYTE (72 h, time 3 day) was 92.67%. The “MEAN CORPUSCULAR HEMOGLOBIN” value (72 h, time 3 day) was 25.53 pg, the “MEAN CORPUSCULAR HEMOGLOBIN CONCENTRATION” value (72 h, time 3 day) was 40.03 G/DL and the “MEAN CORPUSCULAR VOLUME” value (72 h, time 3 day) was 63.7 fL. The MONOCYTE (72 h, time 3 day) was 1.33%, the NEUTROPHIL (72 h, time 3 day) was 6% and the “NUCLEATED RED BLOOD CELLS” value (72 h, time 3 day) was 0.67 /100WBC. The “PLATELET COUNT” value (72 h, time 3 day) was 1277 x10E3/uL, the “ALANINE AMINOTRANSFERASE” value (72 h, time 3 day) was 45.67 u/L and the ALBUMIN (72 h, time 3 day) was 4.3 G/DL. For the same compound, the “ALKALINE PHOSPHATASE” value (72 h, time 3 day) was 295 u/L, the “ASPARTATE AMINOTRANSFERASE” value (72 h, time 3 day) was 77.33 u/L and the “BLOOD UREA NITROGEN” value (72 h, time 3 day) was 15.33 mg/dL. The “CARBON DIOXIDE” value (72 h, time 3 day) was 28 mmol/L, the CHLORIDE (72 h, time 3 day) was 101.33 MEQ/L and the CHOLESTEROL (72 h, time 3 day) was 76.33 mg/dL. For the same compound, the “CREATINE PHOSPHOKINASE” value (72 h, time 3 day) was 188.33 u/L, the CREATININE (72 h, time 3 day) was 0.21 mg/dL and the GLUCOSE (72 h, time 3 day) was 169.33 mg/dL. The “LACTATE DEHYDROGENASE” value (72 h, time 3 day) was 202.67 u/L, the LIPASE (72 h, time 3 day) was 9.67 u/L and the PHOSPHORUS (72 h, time 3 day) was 12.5 mg/dL. The POTASSIUM (72 h, time 3 day) was 6.74 MEQ/L, the SODIUM (72 h, time 3 day) was 146.03 MEQ/L and the “TOTAL BILIRUBIN” value (72 h, time 3 day) was 0.2 mg/dL. The “TOTAL PROTEIN” value (72 h, time 3 day) was 5.83 G/DL, the “URIC ACID” value (72 h, time 3 day) was 1.8 mg/dL and the “ABSOLUTE BASOPHIL” value (120 h, time 5 day) was 0 CELLS/uL. The “ABSOLUTE EOSINOPHIL” value (120 h, time 5 day) was 0 CELLS/uL, the “ABSOLUTE LYMPHOCYTE” value (120 h, time 5 day) was 13033 CELLS/uL and the “ABSOLUTE MONOCYTE” value (120 h, time 5 day) was 85.33 CELLS/uL. For the same compound, the “ABSOLUTE SEGMENTED NEUTROPHIL” value (120 h, time 5 day) was 1115 CELLS/uL, the BASOPHIL (120 h, time 5 day) was 0% and the EOSINOPHIL (120 h, time 5 day) was 0%. For the same compound, the “ERYTHROCYTE COUNT” value (120 h, time 5 day) was 5.6 x10E6/uL, the HEMATOCRIT (120 h, time 5 day) was 34.4% and the HEMOGLOBIN (120 h, time 5 day) was 13.67 G/DL. The “LEUKOCYTE COUNT” value (120 h, time 5 day) was 14.23 x10E3/uL, the LYMPHOCYTE (120 h, time 5 day) was 91.33% and the “MEAN CORPUSCULAR HEMOGLOBIN” value (120 h, time 5 day) was 24.47 pg. For the same compound, the “MEAN CORPUSCULAR HEMOGLOBIN CONCENTRATION” value (120 h, time 5 day) was 39.73 G/DL, the “MEAN CORPUSCULAR VOLUME” value (120 h, time 5 day) was 61.5 fL and the MONOCYTE (120 h, time 5 day) was 0.67%. For the same compound, the NEUTROPHIL (120 h, time 5 day) was 8%, the “NUCLEATED RED BLOOD CELLS” value (120 h, time 5 day) was 0 /100WBC and the “PLATELET COUNT” value (120 h, time 5 day) was 1372 x10E3/uL. The “ALANINE AMINOTRANSFERASE” value (120 h, time 5 day) was 48.67 u/L, the ALBUMIN (120 h, time 5 day) was 4.3 G/DL and the “ALKALINE PHOSPHATASE” value (120 h, time 5 day) was 354.67 u/L. The “ASPARTATE AMINOTRANSFERASE” value (120 h, time 5 day) was 81 u/L, the “BLOOD UREA NITROGEN” value (120 h, time 5 day) was 19 mg/dL and the “CARBON DIOXIDE” value (120 h, time 5 day) was 25.67 mmol/L. The CHLORIDE (120 h, time 5 day) was 103.33 MEQ/L, the CHOLESTEROL (120 h, time 5 day) was 60.33 mg/dL and the “CREATINE PHOSPHOKINASE” value (120 h, time 5 day) was 259.33 u/L. For the same compound, the CREATININE (120 h, time 5 day) was 0.2 mg/dL, the GLUCOSE (120 h, time 5 day) was 164.33 mg/dL and the “LACTATE DEHYDROGENASE” value (120 h, time 5 day) was 139 u/L. For the same compound, the LIPASE (120 h, time 5 day) was 9.67 u/L, the PHOSPHORUS (120 h, time 5 day) was 12.23 mg/dL and the POTASSIUM (120 h, time 5 day) was 6.24 MEQ/L. For the same compound, the SODIUM (120 h, time 5 day) was 148.03 MEQ/L, the “TOTAL BILIRUBIN” value (120 h, time 5 day) was 0.23 mg/dL and the “TOTAL PROTEIN” value (120 h, time 5 day) was 6.27 G/DL. For the same compound, the “URIC ACID” value (120 h, time 5 day) was 1.93 mg/dL.
